How the values were obtained:
P. acnes = experiment: Amotosalen and UV light (265-385 nm LEDs) treatment of P. acnes in plasma, colony forming unit assay; format: cell-based; settings: 15 μM amotosalen, ~6.4 J/cm^2, plasma
Description: (§1) This system comprised single arrays facing (e.g., opposing) a platform positioned for the illumination of biological fluids placed on the platform (see e.g., FIG. 5). System controls provided for adjustment of the LEDs during treatment of the biological fluid samples, controlling both the timing and intensity of illumination by the LEDs to achieve a desired light UV light dose. Evaluation of photochemical conversion, photoproduct formation, pathogen inactivation, and plasma and/or platelet quality parameters are performed for each light source wavelength as described previously. In one study using the device, photochemical inactivation of various bacteria were tested for each of the above-referenced LEDs together with amotosalen. The bacteria included E. coli (Gram negative), S. epidermidis (Gram positive), and P. acnes (anaerobe). As there are known germicidal effects of ultraviolet light with wavelengths in the UVC and UVB range, the study was controlled to determine for each LED wavelength the total inactivation levels, as well as inactivation levels specifically resulting from the UV light (without added amotosalen) or the photochemical treatment process itself.

feline calicivirus (FCV) = experiment: Photochemical inactivation of FCV in platelets (35% plasma/65% PAS) with amotosalen and 340 nm UVA, plaque assay; format: cell-based
E. coli [1] = experiment: Amotosalen and UV light (265-385 nm LEDs) treatment of E. coli in plasma, six-well plates, colony forming unit assay; format: cell-based; settings: for Log reduction from S-59 / Log reduction total: ~3 J/cm^2, plasma
Description: as §1

E. coli [2] = experiment: Amotosalen and two sequential UV light doses (UVC + UVA) treatment of E. coli in plasma, colony forming unit assay; format: cell-based; settings: 15 μM amotosalen, titer pre-UV 6.57; for Titer Post-Second: ~3 J/cm^2 each
Experimental: Additionally, any two or more wavelengths of narrow bandwidth light are evaluated in combination, such as for example, photochemical treatment of a biological fluid using amotosalen and ultraviolet light of a first peak wavelength and ultraviolet light of a second peak wavelength, sequentially or concurrently. More specifically, in one example pathogen inactivation of E. coli (Gram negative) and S. epidermidis (Gram positive) bacteria was evaluated using amotosalen and the device with LEDs of wavelengths described in Example 8. […] The spiked plasma units were divided into control (no amotosalen+UV light) and treatment (with amotosalen) conditions, with amotosalen used at 15 μM concentration. The units were aliquoted into six-well plates (5 mL/well) for illumination. Pre-illumination samples were taken and control bacterial titers determined using standard colony forming unit assay. […] Data for pre-illumination titers, post-first illumination titer, post-second illumination titer, and post-treatment (after second illumination) residual amotosalen (S-59) are shown in the following Tables 40-41.

[3] = S-59 photoconversion in apheresis platelets in 100% plasma, 15 μM S-59, HPLC; format: physicochemical
Description: Additional units were illuminated with the INT-100 device at ˜3.6 J/cm^2 for comparison or maintained as an untreated control.

Cc1oc2c(C)c3oc(=O)cc(C)c3cc2c1COCCN [S-59, 3-(2-aminoethoxymethyl)-2,5,9-trimethylfuro[3,2-g]chromen-7-one]
Log reduction from S-59 (P. acnes; 265 nm): 1.60 log
Log reduction total (P. acnes; 265 nm): 6.03 log
Log reduction from S-59 (P. acnes; 280 nm): 0.71 log
Log reduction total (P. acnes; 280 nm): 1.09 log
Log reduction from S-59 (P. acnes; 310 nm): 5.67 log
Log reduction total (P. acnes; 310 nm): 6.99 log
Log reduction from S-59 (P. acnes; 325 nm): 6.54 log
Log reduction total (P. acnes; 325 nm): 6.69 log
Log reduction from S-59 (P. acnes; 340 nm): 6.78 log
Log reduction total (P. acnes; 340 nm): 6.99 log
Log reduction from S-59 (P. acnes; 365 nm): 6.67 log
Log reduction total (P. acnes; 365 nm): 6.99 log
Log reduction from S-59 (P. acnes; 385 nm): 1.64 log
Log reduction total (P. acnes; 385 nm): 1.97 log
Log inactivation (feline calicivirus (FCV); 15 μM, 4 hr incubation, 340 nm ~3 J/cm^2): 2.7 log PFU/mL
Log inactivation (feline calicivirus (FCV); 15 μM, 8 hr incubation, 340 nm ~3 J/cm^2): 4.2 log PFU/mL
Log inactivation (feline calicivirus (FCV); 15 μM, 8 hr, 340 nm ~3 J/cm^2 Top Only): 4.1 log PFU/mL
Log inactivation (feline calicivirus (FCV); 15 μM, 8 hr, 340 nm ~3 J/cm^2 Top/Bottom): 3.9 log PFU/mL
Log inactivation (feline calicivirus (FCV); 15 μM, 24 hr incubation, 340 nm ~3 J/cm^2): >5.6 log PFU/mL
Log inactivation (feline calicivirus (FCV); 15 μM, 24 hr, 340 nm ~3 J/cm^2 Top Only): >6.3 log PFU/mL
Log inactivation (feline calicivirus (FCV); 15 μM, 24 hr, 340 nm ~3 J/cm^2 Top/Bottom): >6.3 log PFU/mL
Log inactivation (feline calicivirus (FCV); 30 μM, 4 hr incubation, 340 nm ~3 J/cm^2): 4.0 log PFU/mL
Log inactivation (feline calicivirus (FCV); 30 μM, 8 hr incubation, 340 nm ~3 J/cm^2): >5.6 log PFU/mL
Log inactivation (feline calicivirus (FCV); 30 μM, 8 hr, 340 nm ~3 J/cm^2 Top Only): >6.3 log PFU/mL
Log inactivation (feline calicivirus (FCV); 30 μM, 8 hr, 340 nm ~3 J/cm^2 Top/Bottom): 6.3 log PFU/mL
Log inactivation (feline calicivirus (FCV); 30 μM, 24 hr incubation, 340 nm ~3 J/cm^2): >5.6 log PFU/mL
Log inactivation (feline calicivirus (FCV); 30 μM, 24 hr, 340 nm ~3 J/cm^2 Top Only): >6.3 log PFU/mL
Log inactivation (feline calicivirus (FCV); 30 μM, 24 hr, 340 nm ~3 J/cm^2 Top/Bottom): >6.3 log PFU/mL
Log inactivation (feline calicivirus (FCV); 90 μM, 4 hr incubation, 340 nm ~3 J/cm^2): >5.6 log PFU/mL
Log inactivation (feline calicivirus (FCV); 90 μM, 8 hr incubation, 340 nm ~3 J/cm^2): >5.6 log PFU/mL
Log inactivation (feline calicivirus (FCV); 90 μM, 24 hr incubation, 340 nm ~3 J/cm^2): >5.6 log PFU/mL
Log inactivation (feline calicivirus (FCV); 150 μM, 0 hr incubation, 340 nm, more than twice ~3 J/cm^2): 2.5 log PFU/mL
Log inactivation (feline calicivirus (FCV); 150 μM, 0 hr, 340 nm Top Only (1-sided)): 4.6 log PFU/mL
Log inactivation (feline calicivirus (FCV); 150 μM, 0 hr, 340 nm Top/Bottom (2-sided)): 3.5 log PFU/mL
Log reduction from S-59 (E. coli [1]; 15 μM amotosalen, 265 nm): 0 log
Log reduction total (E. coli [1]; 15 μM amotosalen, 265 nm): 4.52 log
Log reduction from S-59 (E. coli [1]; 15 μM amotosalen, 280 nm): 0 log
Log reduction total (E. coli [1]; 15 μM amotosalen, 280 nm): 4.52 log
Log reduction from S-59 (E. coli [1]; 15 μM amotosalen, 310 nm): 1.15 log
Log reduction total (E. coli [1]; 15 μM amotosalen, 310 nm): 4.52 log
Log reduction from S-59 (E. coli [1]; 15 μM amotosalen, 325 nm): 3.81 log
Log reduction total (E. coli [1]; 15 μM amotosalen, 325 nm): 4.52 log
Log reduction from S-59 (E. coli [1]; 15 μM amotosalen, 340 nm): 2.94 log
Log reduction total (E. coli [1]; 15 μM amotosalen, 340 nm): 4.52 log
Log reduction from S-59 (E. coli [1]; 15 μM amotosalen, 365 nm): 2.76 log
Log reduction total (E. coli [1]; 15 μM amotosalen, 365 nm): 4.52 log
Log reduction from S-59 (E. coli [1]; 15 μM amotosalen, 385 nm): 0.49 log
Log reduction total (E. coli [1]; 15 μM amotosalen, 385 nm): 1.5 log
Log reduction from S-59 (E. coli [1]; 150 μM amotosalen, 265 nm): 0.54 log
Log reduction total (E. coli [1]; 150 μM amotosalen, 265 nm): 5.01 log
Log reduction from S-59 (E. coli [1]; 150 μM amotosalen, 280 nm): 0.59 log
Log reduction total (E. coli [1]; 150 μM amotosalen, 280 nm): 5.38 log
Log reduction from S-59 (E. coli [1]; 150 μM amotosalen, 310 nm): 2.29 log
Log reduction total (E. coli [1]; 150 μM amotosalen, 310 nm): 6.23 log
Log reduction from S-59 (E. coli [1]; 150 μM amotosalen, 325 nm): 5.36 log
Log reduction total (E. coli [1]; 150 μM amotosalen, 325 nm): 5.70 log
Log reduction from S-59 (E. coli [1]; 150 μM amotosalen, 340 nm): 4.93 log
Log reduction total (E. coli [1]; 150 μM amotosalen, 340 nm): 5.64 log
Log reduction from S-59 (E. coli [1]; 150 μM amotosalen, 365 nm): 4.90 log
Log reduction total (E. coli [1]; 150 μM amotosalen, 365 nm): 5.30 log
Log reduction from S-59 (E. coli [1]; 150 μM amotosalen, 385 nm): 4.34 log
Log reduction total (E. coli [1]; 150 μM amotosalen, 385 nm): 4.95 log
photochemical inactivation (E. coli [1]; summary for bacteria of Example 8, amotosalen+325 nm and amotosalen+340 nm illumination): greater than 4 logs
Titer Post-Second (E. coli [2]; UV 1 265 nm then UV 2 325 nm): <−0.11
Titer Post-Second (E. coli [2]; UV 1 265 nm then UV 2 340 nm): <−0.11
Titer Post-Second (E. coli [2]; UV 1 265 nm then UV 2 365 nm): <−0.11
Titer Post-First (E. coli [2]; UV 1 265 nm ~3 J/cm^2 (then 325 nm)): 3.58
Titer Post-First (E. coli [2]; UV 1 265 nm ~3 J/cm^2 (then 340 nm)): 3.86
Titer Post-First (E. coli [2]; UV 1 265 nm ~3 J/cm^2 (then 365 nm)): 2.95
Titer Post-Second (E. coli [2]; UV 1 280 nm then UV 2 325 nm): <−0.11
Titer Post-Second (E. coli [2]; UV 1 280 nm then UV 2 340 nm): <−0.11
Titer Post-Second (E. coli [2]; UV 1 280 nm then UV 2 365 nm): <−0.11
Titer Post-First (E. coli [2]; UV 1 280 nm ~3 J/cm^2 (then 325 nm)): 3.66
Titer Post-First (E. coli [2]; UV 1 280 nm ~3 J/cm^2 (then 340 nm)): 4.15
Titer Post-First (E. coli [2]; UV 1 280 nm ~3 J/cm^2 (then 365 nm)): 4.11
Titer Post-Second (E. coli [2]; UV 1 325 nm then UV 2 265 nm): <−0.11
Titer Post-Second (E. coli [2]; UV 1 325 nm then UV 2 280 nm): <−0.11
Titer Post-First (E. coli [2]; UV 1 325 nm ~3 J/cm^2 (then 265 nm)): <−0.11
Titer Post-First (E. coli [2]; UV 1 325 nm ~3 J/cm^2 (then 280 nm)): <−0.11
Titer Post-Second (E. coli [2]; UV 1 340 nm then UV 2 265 nm): <−0.11
Titer Post-Second (E. coli [2]; UV 1 340 nm then UV 2 280 nm): <−0.11
Titer Post-First (E. coli [2]; UV 1 340 nm ~3 J/cm^2 (then 265 nm)): <−0.11
Titer Post-First (E. coli [2]; UV 1 340 nm ~3 J/cm^2 (then 280 nm)): <−0.11
Titer Post-Second (E. coli [2]; UV 1 365 nm then UV 2 265 nm): <−0.11
Titer Post-Second (E. coli [2]; UV 1 365 nm then UV 2 280 nm): <−0.11
Titer Post-First (E. coli [2]; UV 1 365 nm ~3 J/cm^2 (then 265 nm)): <−0.11
Titer Post-First (E. coli [2]; UV 1 365 nm ~3 J/cm^2 (then 280 nm)): <−0.11
S-59 concentration post-illumination ([3]; 340 nm LED 1× (~3.6 J/cm^2), <LOQ): 0.86 µM
S-59 concentration post-illumination ([3]; 340 nm LED 2× (~7.2 J/cm^2), <LOQ): 0.19 µM
S-59 concentration post-illumination ([3]; 340 nm LED 3× (~10.8 J/cm^2), <LOQ): 0.00 µM
S-59 concentration post-illumination ([3]; INT-100, ~3.6 J/cm^2): 4.11 µM

Reference: US12214092B2, “Systems and methods for treating biological fluids” (Cerus Corporation, priority 2017, dated 2025)
